Measured values published in US9635854B2, “Controlling red rice with mesotrione” (FMC Corporation, priority 2014, dated 2017).

Tested on: red rice (Oryza sativa)
Assay: Pre-emergent evaluation on flooded rice, red rice control
Assay type: in vivo
Details: PRE, direct-seeded flooded rice
Protocol: Rice (Oryza sativa) crop varieties (‘Cybonee’, ‘Jupiter’, and ‘Taggart’) and red rice (Oryza sativa) were planted in 6 inch plastic pots containing sterile top soil. Eight to ten seeds of each species were seeded at 12 o'clock, 3 o'clock, 6 o'clock or 9 o'clock around the pot. The pots were watered after planting. […] The test solutions were applied using a compressed air track spray chamber at 30 gallons per acre using a Teejet 8001E nozzle at 40 PSI, three replicates per test rate. After treatment, the pots were watered lightly and transferred to trays in a greenhouse. After the plants were two inches in height the trays were flooded with water and maintained as such for 14 days. The trays were emptied of water and the pots were maintained by regular watering for 4 more days. At 14, 21 and 28 days after treatment (DAT) the plants were evaluated versus untreated control pots containing the same rice and weeds using a scale of 0% (no control) to 100% (complete plant death).

Compound: CS(=O)(=O)c1ccc(C(=O)C2C(=O)CCCC2=O)c([N+](=O)[O-])c1 [Mesotrione, mesotrione]
- Percent red rice control (14 DAT, 12.5 g ai/ha): 68 BC %
- Percent red rice control (14 DAT, 25 g ai/ha): 70 ABC %
- Percent red rice control (14 DAT, 37.5 g ai/ha): 78 AB %
- Percent red rice control (14 DAT, 50 g ai/ha): 81 AB %
- Percent red rice control (14 DAT, 62.5 g ai/ha): 81 AB %
- Percent red rice control (14 DAT, 75 g ai/ha): 84 A %
- Percent red rice control (14 DAT, 87.5 g ai/ha): 80 AB %
- Percent red rice control (14 DAT, 100 g ai/ha): 84 A %
- Percent red rice control (21 DAT, 12.5 g ai/ha): 91 A %
- Percent red rice control (21 DAT, 25 g ai/ha): 97 A %
- Percent red rice control (21 DAT, 37.5 g ai/ha): 98 A %
- Percent red rice control (21 DAT, 50 g ai/ha): 97 A %
- Percent red rice control (21 DAT, 62.5 g ai/ha): 97 A %
- Percent red rice control (21 DAT, 75 g ai/ha): 98 A %
- Percent red rice control (21 DAT, 87.5 g ai/ha): 98 A %
- Percent red rice control (21 DAT, 100 g ai/ha): 98 A %
- Percent red rice control (28 DAT, 12.5 g ai/ha): 93 A %
- Percent red rice control (28 DAT, 25 g ai/ha): 97 A %
- Percent red rice control (28 DAT, 37.5 g ai/ha): 100 A %
- Percent red rice control (28 DAT, 50 g ai/ha): 99 A %
- Percent red rice control (28 DAT, 62.5 g ai/ha): 99 A %
- Percent red rice control (28 DAT, 75 g ai/ha): 100 A %
- Percent red rice control (28 DAT, 87.5 g ai/ha): 98 A %
- Percent red rice control (28 DAT, 100 g ai/ha): 100 A %
